# Assay results as given in paper PMC12584665, “In vitro and in vivo efficacy of vancomycin against Elizabethkingia species and the impact of increased vancomycin MICs” (Microbiology Spectrum, 2025).
# Like-named read-outs stand apart in the source and are kept apart here.
# Tests used:
# [1] = tested on: Elizabethkingia anophelis; experiment: Time-kill assay; assay type: cell-based; details: triplicate; for growth in time-kill assay: five clinical isolates, MH broth, ~5 x 10^5 CFU/mL, 37°C
# Description: Time-kill assays were performed as previously described with modifications ([10]). Each 250 mL flask containing 30 mL MH broth (Becton Dickinson, Franklin Lakes, NJ, USA) was inoculated to achieve an initial bacterial density of ~5 × 10⁵ CFU/mL. Cultures were incubated at 37°C with shaking at 200 rpm. Vancomycin or teicoplanin (Sigma-Aldrich, Saint Louis, MO, USA) was added at final concentrations of 4 or 16 mg/L. At designated time points, 100 µL of samples was removed, serially diluted in sterile saline, and plated on MH agar for CFU enumeration after overnight incubation at 37°C. No washing steps were performed prior to plating; given the culture volume and dilution scheme, antibiotic carryover was expected to be negligible. All experiments were performed in triplicate.
# [2] = tested on: Acinetobacter baumannii (LAC-4); experiment: Murine pneumonia model (model validation); assay type: in vivo, C57BL/6J mice; details: 8 mice per group
# Description: (§1) For the pneumonia model, a bacterial suspension was mixed with 5% mucin from porcine stomach (type 3; Sigma-Aldrich, Saint Louis, USA). Seven-week-old C57BL/6J mice were anesthetized with isoflurane for 10 min. For each strain, the inoculum corresponded to the lowest dose that caused >80% mortality in preliminary testing. This inoculum (10⁶–10⁸ cfu, depending on strain) was delivered intratracheally to induce pneumonia. Two hours thereafter, mice received either high or human-equivalent doses of subcutaneous vancomycin (100 mg/kg or 25 mg/kg, respectively) or intraperitoneal teicoplanin (50 mg/kg) ([17]) twice daily for 3 days. Each group contained eight mice, and survival was monitored for 3 days.
# [3] = tested on: Elizabethkingia anophelis; experiment: Agar dilution (AD) MIC; assay type: cell-based
# From the text: Eighteen E. anophelis clinical isolates from the nationwide surveillance program (Taiwan Surveillance of Antimicrobial Resistance) were well characterized in our previous study ([7]) and were selected for susceptibility testing and minimum bactericidal concentration (MBC) assays. Among them, five isolates with different clonality (underlined strains in Fig. S1) were selected for the time-kill assays and in vivo experiments.
# Broth microdilution, disc diffusion, Etest, and agar dilution assays were conducted following CLSI guidelines to determine vancomycin MICs ([8]). […] Criteria for Staphylococcus spp. were not adopted due to the lack of a zone diameter breakpoint. MBCs were determined following CLSI guidelines ([8]).
# E. anophelis = experiment: Broth microdilution MIC of laboratory-induced and gene-edited mutants; assay type: cell-based, Elizabethkingia anophelis; details: for MIC: Elizabethkingia anophelis
# Description: E. anophelis and non-anophelis species with baseline vancomycin MICs of 16–32 mg/L (Table 2) were well characterized in our previous study ([7]) and were included in the induction study. The induction of mutants with elevated vancomycin MICs was modified from a previous study ([18]). Briefly, 10^9 cfu of wild-type E. anophelis (2008S01-229) was plated on brain heart infusion agar (Becton Dickinson, Franklin Lakes, NJ, USA) with twofold multiples of vancomycin (32 –256 mg/L). Isolates from viable colonies were subjected to broth microdilution. Genomic comparison between the parental strain (2008S01-229) and elevated-MIC mutants was performed to identify the mutated gene conferring increased vancomycin MIC. To determine whether similar genetic changes occurred in other Elizabethkingia species, non-anophelis isolates were subjected to the same induction protocol. The corresponding target genes were then analyzed by Sanger sequencing to assess the presence of analogous mutations. The target gene related to elevated vancomycin MICs was also validated via scarless gene editing.
# The suicide plasmid pUT-ermF, which contains two key selection markers: the ermF gene for erythromycin resistance and the sacB gene for sucrose sensitivity-based counterselection, was used as previously described ([19]). DNA fragments corresponding to the upstream and downstream flanking regions of the target gene were cloned into pUT-ermF. The recombinant plasmids were first introduced into E. coli S17–λpir and subsequently transferred into Elizabethkingia spp. via conjugation. The first recombination events were selected on LB agar containing 250 µg/mL erythromycin, and the second recombination (plasmid resolution) was selected by plating on LB agar with 10% sucrose (without NaCl). Colonies were screened and confirmed by PCR sequencing. Genome sequencing was carried out to confirm no other inadvertent changes.
# [4] = Serum drug levels in mice (LC-MS/MS); assay type: in vivo; details: single dose 25 mg/kg subcutaneous, mice, LC-MS/MS; in contrast to 100 mg/kg; 6 to 8 mice per group
# Description: Fifty microliters of aliquots of murine serum was mixed with 100 µL acetonitrile. The mixture was vortexed and then centrifuged at 15,000 × g for 20 min in a Beckman Coulter Microfuge 22R Centrifuge at room temperature. The supernatant was transferred to a clean tube, and then 15 µL of the supernatant was injected onto LC-MS/MS. The chromatographic system consisted of an Agilent 1200 series LC system and an Agilent ZORBAX Eclipse XDB-C8 column (5 µm, 3.0 × 150 mm) interfaced to an MDS Sciex API3000 tandem mass spectrometer. The MS/MS ion transitions monitored were m/z 725/144 for vancomycin. A gradient HPLC method was employed for separation. Mobile phase A consisted of 10 mM ammonium acetate aqueous solution containing 0.1% formic acid and mobile phase B consisted of acetonitrile. The gradient profile was as follows (min/%B): 0.0–0.9/5, 1.0–2.0/50, 2.1–3.7/95, 3.8–5.0/5. The flow rate was set at 1.5 mL/min.
# [5] = tested on: Elizabethkingia anophelis; experiment: Murine pneumonia model; assay type: in vivo, C57BL/6J mice; details: for survival of infected mice: 8 mice per group
# Description: In vivo efficacy was assessed by wax moth (Galleria mellonella), murine pneumonia, and murine thigh infection models following the protocols of our previous study ([2]). The Animal Ethics Committee of Taiwan’s National Health Research Institutes approved the murine pneumonia and thigh infection models.
# as §1
compound,measurement,setting,value
CN[C@H](CC(C)C)C(=O)N[C@H]1C(=O)N[C@@H](CC(N)=O)C(=O)N[C@H]2C(=O)N[C@H]3C(=O)N[C@H](C(=O)N[C@H](C(=O)O)c4cc(O)cc(O)c4-c4cc3ccc4O)[C@H](O)c3ccc(c(Cl)c3)Oc3cc2cc(c3O[C@@H]2O[C@H](CO)[C@@H](O)[C@H](O)[C@H]2O[C@H]2C[C@](C)(N)[C@H](O)[C@H](C)O2)Oc2ccc(cc2Cl)[C@H]1O [Vancomycin],growth in time-kill assay,[1]; 4 mg/L,did not inhibit the growth
same,growth in time-kill assay,[1]; 16 mg/L,Growth was inhibited at a higher level (16 mg/L) at 6 h but increased thereafter
same,time-kill assay,"[1]; 4 or 16 mg/L, mutant 2008S01-229-VAN-R",no effect
same,survival of A. baumannii-infected mice,[2]; 100 mg/kg subcutaneous twice daily,did not improve the survival
same,activity in A. baumannii pneumonia model,"[2]; 25 or 100 mg/kg subcutaneous twice daily, A. baumannii LAC-4",Lack of vancomycin (VAN) activity
same,MIC,[3]; E. anophelis clinical isolate 2008N05-106,16 µg/mL
same,MIC,[3]; E. anophelis clinical isolate 2008S01-229,16 µg/mL
same,MIC,[3]; E. anophelis clinical isolate 2014C06-157,16 µg/mL
same,MIC,[3]; E. anophelis clinical isolate 2016N17-576,16 µg/mL
same,MIC,[3]; E. anophelis clinical isolate 2018C04-213,16 µg/mL
same,MIC,[3]; E. anophelis clinical isolate 2018C04-224,16 µg/mL
same,MIC,[3]; E. anophelis clinical isolate 2018C07-210,16 µg/mL
same,MIC,[3]; E. anophelis clinical isolate 2018C07-234,16 µg/mL
same,MIC,[3]; E. anophelis clinical isolate 2018C08-127,16 µg/mL
same,MIC,[3]; E. anophelis clinical isolate 2018E03-151,16 µg/mL
same,MIC,[3]; E. anophelis clinical isolate 2018E04-135,16 µg/mL
same,MIC,[3]; E. anophelis clinical isolate 2018N16-057,16 µg/mL
same,MIC,[3]; E. anophelis clinical isolate 2018N17-036,16 µg/mL
same,MIC,[3]; E. anophelis clinical isolate 2018N17-073,16 µg/mL
same,MIC,[3]; E. anophelis clinical isolate 2018N17-153,16 µg/mL
same,MIC,[3]; E. anophelis clinical isolate 2018N21-226,16 µg/mL
same,MIC,[3]; E. anophelis clinical isolate 2018S09-023,16 µg/mL
same,MIC,[3]; E. anophelis clinical isolate 2018S11-172,32 µg/mL
same,MIC,"E. anophelis; induced E. anophelis mutant, pbp4 692InsC, Frameshift, 1 isolate",512 µg/mL
same,MIC,"E. anophelis; induced E. anophelis mutant, pbp4 736Del8bp, Frameshift, 1 isolate",512 µg/mL
same,MIC,"E. anophelis; induced E. anophelis mutant, pbp4 827DelA, Frameshift, 1 isolate",128 µg/mL
same,MIC,"E. anophelis; scarless deletion of pbp4 in wild-type E. anophelis 2008N05-106, read-out: MIC",> 512 µg/mL
same,MIC,"E. anophelis; wild-type E. anophelis parent strain (2008S01-229), read-out: Parent strain MIC",32 µg/mL
same,effect on MIC,E. anophelis; replacement of exbD with Thr28Pro mutation in 2008N05-106,did not affect the vancomycin MIC
same,serum concentration-time profile,[4],resembled that of humans
same,survival of infected mice,"[5]; 25 mg/kg subcutaneous twice daily for 3 days, from 2 h after intratracheal inoculation, all clinical strains except 2014C06-157",significantly improved the survival or delayed death
same,in vivo efficacy against one isolate,"[5]; 25 mg/kg, one isolate with similar MIC (2014C06-157)",ineffective
same,survival of infected mice,[5]; 100 mg/kg subcutaneous twice daily for 3 days,conferred a survival benefit
same,improvement of murine survival,"[5]; 100 mg/kg twice daily, infection by 2008S01-229-VAN-R compared to 2008S01-229",hampered
